Test results taken from patent publication US20100029619A1, “FUSED HETEROCYCLIC COMPOUND” (TAKEDA PHARMACEUTICAL COMPANY LIMTED, priority 2006, published 2010).

Row | melting point | SMILES
1 | 257 to 259 °C | CC(C)(C)c1ccc(C(=O)Nc2cn3nc(N4CCCC4)ccc3n2)cc1.Cl (hydrate or solvate)
2 | 280 to 282 °C | Cc1ccc2nc(NC(=O)c3ccc(C(C)(C)CCC(=O)O)cc3)cn2c1 [Example 22, 4-methyl-4-{4-[(6-methylimidazo[1,2-a]pyridin-2-yl)carbamoyl]phenyl}pentanoic acid]
3 | 240 to 242 °C | CC(C)(CO)c1ccc(C(=O)Nc2cn3cc(Cl)ccc3n2)cc1 [Example 90, N-[6-chloroimidazo[1,2-a]pyridin-2-yl]-4-(2-hydroxy-1,1-dimethylethyl)benzamide]
4 | 162 to 164 °C | CCCNCC(C)(C)c1ccc(C(=O)Nc2cn3cc(-n4ccnc4)ccc3n2)cc1 [Example 136, 4-[1,1-dimethyl-2-(propylamino)ethyl]-N-[6-(1H-imidazol-1-yl)imidazo[1,2-a]pyridin-2-yl]benzamide]
5 | 314 to 316 °C (dec.) | CC(C)(C)c1ccc(C(=O)Nc2cn3nc(-n4cnc(CC#N)c4)ccc3n2)cc1 [Example 142, 4-tert-butyl-N-{6-[4-(cyanomethyl)-1H-imidazol-1-yl]imidazo[1,2-b]pyridazin-2-yl}benzamide]
6 | 226 to 229 °C | CC(C)(C)c1ccc(C(=O)Nc2cn3nc(-c4cnn(CCO)c4)ccc3n2)cc1 [Example 178, 4-tert-butyl-N-{6-[1-(2-hydroxyethyl)-1H-pyrazol-4-yl]imidazo[1,2-b]pyridazin-2-yl}benzamide]
7 | 261 to 263 °C | O=C(Nc1cn2cc(-n3ccnc3)ccc2n1)c1ccc(-c2ccoc2)cc1 [Example 89, 4-(3-furyl)-N-[6-(1H-imidazol-1-yl)imidazo[1,2-a]pyridin-2-yl]benzamide]
8 | 225 to 227 °C | CC(C)(CCO)c1ccc(C(=O)Nc2cn3cc(-n4ccnc4)ccc3n2)cc1 [Example 468, 4-(3-hydroxy-1,1-dimethylpropyl)-N-[6-(1H-imidazol-1-yl)imidazo[1,2-a]pyridin-2-yl]benzamide]
9 | 272 to 274 °C | CC(C)(C)c1ccc(C(=O)Nc2cn3cc(-c4cccnc4)ccc3n2)cn1 [Example 102, 6-tert-butyl-N-(6-(pyridin-3-yl)imidazo[1,2-a]pyridin-2-yl)nicotinamide]
10 | 310 to 312 °C | CC(C)(c1ccc(C(=O)Nc2cn3cc(Cl)ccc3n2)cc1)c1noc(=O)[nH]1 [Example 40, N-(6-chloroimidazo[1,2-a]pyridin-2-yl)-4-[1-methyl-1-(5-oxo-4,5-dihydro-1,2,4-oxadiazol-3-yl)ethyl]benzamide]
11 | 152 to 154 °C | CCOC(=O)CCC(C)(C)c1ccc(C(=O)Nc2cn3cc(C)ccc3n2)cc1 [Example 21, ethyl 4-methyl-4-{4-[(6-methylimidazo[1,2-a]pyridin-2-yl)carbamoyl]phenyl}pentanoate]
12 | 245 to 246 °C | Cn1cc(-c2ccc3nc(NC(=O)c4ccc(C(C)(C)C)cc4)cn3n2)cn1 [Example 173, 4-tert-butyl-N-[6-(1-methyl-1H-pyrazol-4-yl)imidazo[1,2-b]pyridazin-2-yl]benzamide]
13 | > 400 °C | O=C([O-])c1ccc(C(=O)Nc2cn3cc(-n4ccnc4)ccc3n2)cc1.[K+]
14 | 238 to 240 °C | CC(C)(C)c1ccc(C(=O)Nc2cn3cc(-c4cn[nH]c4)ccc3n2)cn1 [Example 114, 6-tert-butyl-N-[6-(1H-pyrazol-4-yl)imidazo[1,2-a]pyridin-2-yl]nicotinamide]
15 | 274 to 275 °C | CC(C)(C)c1ccc(C(=O)Nc2cn3nc(NC4CC4)ccc3n2)cc1 [Example 166, 4-tert-butyl-N-[6-(cyclopropylamino)imidazo[1,2-b]pyridazin-2-yl]benzamide]
16 | 235 to 237 °C | COC(=O)C(C)(C)c1ccc(C(=O)Nc2cn3c4c(ccc3n2)OCC4)cc1 [Example 15, methyl 2-[4-(1,2-dihydrofuro[2,3-e]imidazo[1,2-a]pyridin-7-ylcarbamoyl)phenyl]-2-methylpropanoate]
17 | 266 to 267 °C | CC(C)(c1ccc(C(=O)Nc2cn3cc(Cl)ccc3n2)cc1)c1nnn[nH]1 [Example 39, N-(6-chloroimidazo[1,2-a]pyridin-2-yl)-4-[1-methyl-1-(1H-tetrazol-5-yl)ethyl]benzamide]
18 | 230 to 231 °C | CC(C)(C)c1ccc(C(=O)Nc2cn3ccccc3n2)cc1 [Example 54, 4-tert-butyl-N-(imidazo[1,2-a]pyridin-2-yl)benzamide]
19 | 229 to 230 °C | CC(C)(C)c1ccc(C(=O)Nc2cn3c(CO)cccc3n2)cc1 [Example 194, 4-tert-butyl-N-[5-(hydroxymethyl)imidazo[1,2-a]pyridin-2-yl]benzamide]
20 | 275 to 277 °C | CN1CCC(Nc2ccc3nc(NC(=O)c4ccc(C(C)(C)C)cc4)cn3n2)CC1 [Example 168, 4-tert-butyl-N-{6-[(1-methylpiperidin-4-yl)amino]imidazo[1,2-b]pyridazin-2-yl}benzamide]
21 | 243 to 244 °C | CCCNc1ccc2nc(NC(=O)c3ccc(C(C)(C)C)cc3)cn2n1 [Example 167, 4-tert-butyl-N-[6-(propylamino)imidazo[1,2-b]pyridazin-2-yl]benzamide]
22 | 247 to 248 °C | CN(C)c1ccc(C(=O)Nc2cn3cc(-n4ccnc4)ccc3n2)cc1 [Example 85, 4-dimethylamino-N-[6-(1H-imidazol-1-yl)imidazo[1,2-a]pyridin-2-yl]benzamide]
23 | 200 to 201 °C | CNCCNc1ccc2nc(NC(=O)c3ccc(C(C)(C)C)cc3)cn2n1 [Example 172, 4-tert-butyl-N-(6-{[2-(methylamino)ethyl]amino}imidazo[1,2-b]pyridazin-2-yl)benzamide]
24 | 264 to 265 °C | CC(C)(C)c1ccc(C(=O)Nc2cn3nc(NC4CCNC4)ccc3n2)cc1 (stereo not drawn) [Example 170, 4-tert-butyl-N-{6-[(pyrrolidin-3-yl)amino]imidazo[1,2-b]pyridazin-2-yl}benzamide]
25 | 261 to 263 °C | CC(C)(C)c1ccc(C(=O)Nc2cn3cc(-c4ccsc4)ccc3n2)cc1 [Example 108, 4-tert-butyl-N-[6-(3-thienyl)imidazo[1,2-a]pyridin-2-yl]benzamide]
26 | 249 to 250 °C | CC(O)c1ccc2nc(NC(=O)c3ccc(C(C)(C)C)cc3)cn2c1 (stereo not drawn) [Example 71, 4-tert-butyl-N-[6-(1-hydroxyethyl)imidazo[1,2-a]pyridin-2-yl]benzamide]
27 | 248 to 250 °C | CC(C)(C#N)c1ccc(C(=O)Nc2cn3cc(Cl)ccc3n2)cc1 [Example 38, N-(6-chloroimidazo[1,2-a]pyridin-2-yl)-4-(1-cyano-1-methylethyl)benzamide]
28 | 222 to 223 °C | CC(C)(C)c1ccc(C(=O)Nc2cn3nc(NCc4ccncc4)ccc3n2)cc1 [Example 159, 4-tert-butyl-N-{6-[(pyridin-4-ylmethyl)amino]imidazo[1,2-b]pyridazin-2-yl}benzamide]
29 | 245 to 247 °C | COc1ccc(-c2ccc3nc(NC(=O)c4ccc(C(C)(C)C)cc4)cn3c2)cn1 [Example 106, 4-tert-butyl-N-[6-(6-methoxypyridin-3-yl)imidazo[1,2-a]pyridin-2-yl]benzamide]
30 | 293 to 294 °C | CC(C)(C)c1ccc(C(=O)Nc2cn3cc(-c4ccncc4)ccc3n2)cc1 [Example 59, 4-tert-butyl-N-[6-(pyridin-4-yl)imidazo[1,2-a]pyridin-2-yl]benzamide]
